This note sets out measurements from publication PMC6222410, “Design, Synthesis and Docking Studies of Novel Macrocyclic Pentapeptides as Anticancer Multi-Targeted Kinase Inhibitors” (Molecules : A Journal of Synthetic Chemistry and Natural …, 2018).

Where two headings read alike, the source gives them in different places.

For one series, the system named is HepG-2 cell line. Description: In vitro cytotoxicity on HepG-2 cell line. Particulars: HepG-2 human hepatocellular carcinoma cells, concentration inhibiting cell viability by 50%, mean of three values, read-out: IC50 (Mean ± SEM) HepG-2. It is filed as cell-based. From the text:
(§1) In vitro bioassay on human cancer cell lines was adopted against two cancer cell lines (MCF-7 and HepG-2). HepG2, human hepatocellular carcinoma and MCF-7, human breast cancer cell lines were obtained from Sigma-Aldrich Chemie GmbH, Taufkirchen, Germany.

In a further series the test system is MCF-7 cell line. Briefly: In vitro cytotoxicity on MCF-7 cell line. It is filed as cell-based. Particulars: MCF-7 human breast cancer cells; concentration inhibiting cell viability by 50%; mean of three values; read-out: IC50 (Mean ± SEM) MCF-7.
Text: as §1

Another series has as its target CDK-2 (Homo sapiens, UniProt P24941). Briefly: In vitro kinase inhibition, ELISA assay. It is filed as biochemical. The note with it: mean of three values, read-out: IC50 (Mean±SEM) CDK-2.
A further series has as its target PDGFRβ (Homo sapiens, UniProt P09619). Briefly: In vitro kinase inhibition, ELISA assay. It is filed as biochemical. Particulars: mean of three values, read-out: IC50 (Mean±SEM) PDGFRβ.
For the next series, the target named is EGFR (Homo sapiens, UniProt P00533). Briefly: In vitro kinase inhibition, ELISA assay. It counts as biochemical. The note with it: mean of three values, read-out: IC50 (Mean±SEM) EGFR. On the procedure:
The in vitro enzyme inhibition determination for compound 5c was carried out in confirmatory diagnostic unit, Vacsera, Egypt. […]

Chain of EGFR (P00533 25-1210): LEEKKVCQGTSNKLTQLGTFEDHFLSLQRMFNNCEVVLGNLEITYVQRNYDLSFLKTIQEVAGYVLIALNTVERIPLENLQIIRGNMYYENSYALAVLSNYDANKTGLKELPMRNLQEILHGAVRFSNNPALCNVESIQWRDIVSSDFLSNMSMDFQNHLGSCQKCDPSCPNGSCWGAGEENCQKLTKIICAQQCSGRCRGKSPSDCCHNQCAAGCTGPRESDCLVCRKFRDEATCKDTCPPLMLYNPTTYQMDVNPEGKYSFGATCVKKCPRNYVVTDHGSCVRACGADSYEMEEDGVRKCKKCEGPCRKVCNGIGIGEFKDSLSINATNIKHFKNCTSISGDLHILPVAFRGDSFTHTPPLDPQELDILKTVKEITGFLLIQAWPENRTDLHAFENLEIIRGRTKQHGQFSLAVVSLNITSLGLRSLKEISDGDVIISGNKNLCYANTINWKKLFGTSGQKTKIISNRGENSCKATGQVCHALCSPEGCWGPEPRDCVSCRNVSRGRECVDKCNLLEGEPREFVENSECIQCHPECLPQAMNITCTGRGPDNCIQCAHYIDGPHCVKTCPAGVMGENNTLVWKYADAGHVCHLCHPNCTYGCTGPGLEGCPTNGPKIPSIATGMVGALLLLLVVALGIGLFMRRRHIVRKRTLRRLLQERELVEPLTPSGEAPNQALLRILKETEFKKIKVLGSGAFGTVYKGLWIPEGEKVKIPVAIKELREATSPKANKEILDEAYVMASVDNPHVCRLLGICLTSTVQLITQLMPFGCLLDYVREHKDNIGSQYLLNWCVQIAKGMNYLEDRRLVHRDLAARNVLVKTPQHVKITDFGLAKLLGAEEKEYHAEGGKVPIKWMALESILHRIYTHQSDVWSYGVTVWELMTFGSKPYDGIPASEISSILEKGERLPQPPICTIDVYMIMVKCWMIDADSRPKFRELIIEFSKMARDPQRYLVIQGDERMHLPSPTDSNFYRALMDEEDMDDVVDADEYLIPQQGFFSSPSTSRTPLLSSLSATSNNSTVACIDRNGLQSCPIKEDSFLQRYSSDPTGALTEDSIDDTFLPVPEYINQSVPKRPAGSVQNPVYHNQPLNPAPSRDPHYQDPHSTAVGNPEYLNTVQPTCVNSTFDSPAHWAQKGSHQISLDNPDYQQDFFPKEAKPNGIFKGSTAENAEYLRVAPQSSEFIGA
Chain of PDGFRβ (P09619 33-1106): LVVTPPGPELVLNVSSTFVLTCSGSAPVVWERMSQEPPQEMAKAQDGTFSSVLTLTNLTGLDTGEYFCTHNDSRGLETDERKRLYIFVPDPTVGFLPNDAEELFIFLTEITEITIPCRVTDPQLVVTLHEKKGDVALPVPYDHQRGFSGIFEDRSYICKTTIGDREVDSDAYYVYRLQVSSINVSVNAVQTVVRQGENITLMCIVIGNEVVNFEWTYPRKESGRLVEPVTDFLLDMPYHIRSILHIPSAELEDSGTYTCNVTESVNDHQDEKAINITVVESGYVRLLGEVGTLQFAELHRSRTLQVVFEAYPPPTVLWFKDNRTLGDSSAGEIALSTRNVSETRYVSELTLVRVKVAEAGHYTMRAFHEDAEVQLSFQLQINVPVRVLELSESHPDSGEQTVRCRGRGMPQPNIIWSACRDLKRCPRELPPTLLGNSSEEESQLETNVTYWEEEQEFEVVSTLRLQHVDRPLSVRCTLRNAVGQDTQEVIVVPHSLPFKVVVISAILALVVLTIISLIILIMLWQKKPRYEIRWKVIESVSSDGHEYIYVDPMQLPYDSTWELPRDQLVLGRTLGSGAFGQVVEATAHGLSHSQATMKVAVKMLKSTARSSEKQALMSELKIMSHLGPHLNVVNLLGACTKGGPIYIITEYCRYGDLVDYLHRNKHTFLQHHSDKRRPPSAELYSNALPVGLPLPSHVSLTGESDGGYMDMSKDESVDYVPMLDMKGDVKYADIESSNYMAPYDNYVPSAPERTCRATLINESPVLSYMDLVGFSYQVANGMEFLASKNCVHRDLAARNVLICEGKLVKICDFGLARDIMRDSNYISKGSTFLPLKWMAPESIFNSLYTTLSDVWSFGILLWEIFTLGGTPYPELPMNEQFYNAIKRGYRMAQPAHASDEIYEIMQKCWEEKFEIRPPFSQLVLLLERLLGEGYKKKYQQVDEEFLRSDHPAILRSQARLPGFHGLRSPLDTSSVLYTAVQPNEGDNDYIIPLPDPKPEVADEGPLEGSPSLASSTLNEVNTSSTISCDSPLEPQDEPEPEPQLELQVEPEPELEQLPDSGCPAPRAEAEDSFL

As to `O=c1[nH]cc(F)c(=O)[nH]1` [5-Fluorouracil®, 5-Fluorouracil, reference compound], the IC50 with HepG-2 cell line (HepG2) amounted to 43.8 ± 1.84 µM.
`CC[C@H](C)[C@H](NC(=O)c1cccc(C(=O)N[C@H](C(=O)N[C@H](C(=O)OC)[C@@H](C)CC)[C@@H](C)CC)n1)C(=O)N[C@H](C(=O)OC)[C@@H](C)CC` [Compound 2a, N^α-Dipicolinoyl-bis[L-ILe-L-ILe-methyl ester]] showed a melting point of 106 to 108 °C. In addition, the IC50 with MCF-7 cell line was 31.6 ± 1.3 µM. For the same compound, the IC50 with HepG-2 cell line stood at 20.4 ± 1.36 µM.
`CC[C@H](C)[C@H](NC(=O)c1cccc(C(=O)N[C@H](C(=O)N[C@@H](Cc2ccccc2)C(=O)OC)[C@@H](C)CC)n1)C(=O)N[C@@H](Cc1ccccc1)C(=O)OC` [Compound 2b, N^α-Dipicolinoyl-bis[L-ILe-L-Phe-methyl ester]] registered a melting point of 122 to 124 °C. Besides, the IC50 in the series on MCF-7 cell line was 32.6 ± 1.5 µM. Moreover, the IC50 with HepG-2 cell line was 15.8 ± 1.66 µM.
The compound `CC[C@H](C)[C@H](NC(=O)[C@H](Cc1ccccc1)NC(=O)c1cccc(C(=O)N[C@@H](Cc2ccccc2)C(=O)N[C@H](C(=O)OC)[C@@H](C)CC)n1)C(=O)OC` [Compound 2c, N^α-Dipicolinoyl-bis[L-Phe-L-ILe-methyl ester]] gave a melting point of 150 to 152 °C. Besides, the IC50 in the series on MCF-7 cell line was greater than 100 µM. For the same compound, the IC50 in the series with HepG-2 cell line was determined as 35.5 ± 1.83 µM.
For `CC[C@H](C)[C@H](NC(=O)[C@@H](NC(=O)c1cccc(C(=O)N[C@H](C(=O)N[C@H](C(=O)O)[C@@H](C)CC)[C@@H](C)CC)n1)[C@@H](C)CC)C(=O)O` [Compound 3a, N^α-Dipicolinoyl-bis[L-ILe-L-ILe]acid], the melting point fell in the range of 178 to 180 °C. In addition, the IC50 in the series with MCF-7 cell line was greater than 100 µM. For the same compound, the IC50 in the series with HepG-2 cell line turned out to be 26 ± 2.35 µM.
The compound `CC[C@H](C)[C@H](NC(=O)c1cccc(C(=O)N[C@H](C(=O)N[C@@H](Cc2ccccc2)C(=O)O)[C@@H](C)CC)n1)C(=O)N[C@@H](Cc1ccccc1)C(=O)O` [Compound 3b, N^α-Dipicolinoyl-bis[L-ILe-L-Phe]acid] returned a melting point of 184 to 186 °C. The IC50 with MCF-7 cell line turned out to be 25.3 ± 1.18 µM. Besides, the IC50 with HepG-2 cell line is 13.5 ± 1.45 µM.
For `CC[C@H](C)[C@H](NC(=O)[C@H](Cc1ccccc1)NC(=O)c1cccc(C(=O)N[C@@H](Cc2ccccc2)C(=O)N[C@H](C(=O)O)[C@@H](C)CC)n1)C(=O)O` [Compound 3c, N^α-Dipicolinoyl-bis[L-Phe-L-ILe]acid] the same measures were 202 to 204 °C, 29.6 ± 2.06 µM and 26.6 ± 1.85 µM.
For `CC[C@H](C)[C@@H]1NC(=O)c2cccc(n2)C(=O)N[C@@H]([C@@H](C)CC)C(=O)N[C@@H]([C@@H](C)CC)C(=O)N[C@H](C(=O)OC)CCCCNC(=O)[C@H]([C@@H](C)CC)NC1=O` [Compound 4a, Cyclo-(N^α-dipicolinoyl)-bis-[L-ILe-L-ILe]-L-Lys-OMe] the same measures were 77 to 79 °C, greater than 100 µM and 11.6 ± 2.7 µM.
For `CC[C@H](C)[C@@H]1NC(=O)c2cccc(n2)C(=O)N[C@@H]([C@@H](C)CC)C(=O)N[C@@H](Cc2ccccc2)C(=O)N[C@H](C(=O)OC)CCCCNC(=O)[C@H](Cc2ccccc2)NC1=O` [Compound 4b, Cyclo-(N^α-Dipicolinoyl)-bis-[L-ILe-L-Phe]-L-Lys-OMe] the same measures were 104 to 106 °C, 10.5 ± 1.33 µM and 10.2 ± 2.2 µM.
The compound `CC[C@H](C)[C@@H]1NC(=O)[C@H](Cc2ccccc2)NC(=O)c2cccc(n2)C(=O)N[C@@H](Cc2ccccc2)C(=O)N[C@@H]([C@@H](C)CC)C(=O)N[C@H](C(=O)OC)CCCCNC1=O` [Compound 4c, Cyclo-(N^α-Dipicolinoyl)-bis-[L-Phe-L-ILe]-L-Lys-OMe] showed a melting point of 140 to 142 °C. For the same compound, in the series on MCF-7 cell line, the IC50 turned out to be 29.2 ± 1.39 µM. In the series on HepG-2 cell line, the IC50 amounted to 18.8 ± 1.47 µM.
On the same counts, the results for `CC[C@H](C)[C@@H]1NC(=O)c2cccc(n2)C(=O)N[C@@H]([C@@H](C)CC)C(=O)N[C@@H]([C@@H](C)CC)C(=O)N[C@H](C(=O)O)CCCCNC(=O)[C@H]([C@@H](C)CC)NC1=O` [Compound 5a, Cyclo-(N^α-dipicolinoyl)-bis [L-ILe-L-ILe]-L-Lys-OH] are 108 to 110 °C, 12.7 ± 2.4 µM and 11.2 ± 1.95 µM.
`CC[C@H](C)[C@@H]1NC(=O)c2cccc(n2)C(=O)N[C@@H]([C@@H](C)CC)C(=O)N[C@@H](Cc2ccccc2)C(=O)N[C@H](C(=O)O)CCCCNC(=O)[C@H](Cc2ccccc2)NC1=O` [Compound 5b, Cyclo-(N^α-dipicolinoyl)-bis [L-ILe-L-Phe]-L-Lys-OH] showed a melting point of 128 to 130 °C. The IC50 in the series on MCF-7 cell line is 11.3 ± 1.15 µM. In addition, in the series on HepG-2 cell line, the IC50 was found to be 10.1 ± 2.05 µM.
For `CC[C@H](C)[C@@H]1NC(=O)[C@H](Cc2ccccc2)NC(=O)c2cccc(n2)C(=O)N[C@@H](Cc2ccccc2)C(=O)N[C@@H]([C@@H](C)CC)C(=O)N[C@H](C(=O)O)CCCCNC1=O` [Compound 5c, Cyclo-(N^α-dipicolinoyl)-bis [L-Phe-L-ILe]-L-Lys-OH], the melting point is 178 to 180 °C. Besides, the IC50 at CDK-2 came to 0.06 µM. Also, on PDGFRβ, the IC50 came out at 0.08 µM. At EGFR, the IC50 was 0.14 µM. Further, in the series on MCF-7 cell line, the IC50 was 9.41 ± 1.25 µM. For the same compound, the IC50 in the series with HepG-2 cell line was determined as 7.53 ± 1.33 µM.
In the case of `CC[C@H](C)[C@@H]1NC(=O)c2cccc(n2)C(=O)N[C@@H]([C@@H](C)CC)C(=O)N[C@@H]([C@@H](C)CC)C(=O)N[C@H](C(=O)NN)CCCCNC(=O)[C@H]([C@@H](C)CC)NC1=O` [Compound 6a, Cyclo-(N^α-dipicolinoyl)-bis[L-ILe-L-ILe]-L-Lys-NHNH2], the melting point fell in the range of 180 to 182 °C. For the same compound, the IC50 with MCF-7 cell line was determined as 11.8 ± 1.62 µM. For the same compound, in the series with HepG-2 cell line, the concentration for half-maximal inhibition (IC50) worked out at 12.4 ± 1.3 µM.
Take `CC[C@H](C)[C@@H]1NC(=O)c2cccc(n2)C(=O)N[C@@H]([C@@H](C)CC)C(=O)N[C@@H](Cc2ccccc2)C(=O)N[C@H](C(=O)NN)CCCCNC(=O)[C@H](Cc2ccccc2)NC1=O` [Compound 6b, Cyclo-(N^α-dipicolinoyl)-bis[L-ILe-L-Phe]-L-Lys-NHNH2]: the melting point was 161 to 163 °C. In addition, in the series on MCF-7 cell line, the IC50 stood at 10.9 ± 1.1 µM. In the series with HepG-2 cell line, the IC50 was 11.5 ± 1.7 µM.
As to `CC[C@H](C)[C@@H]1NC(=O)[C@H](Cc2ccccc2)NC(=O)c2cccc(n2)C(=O)N[C@@H](Cc2ccccc2)C(=O)N[C@@H]([C@@H](C)CC)C(=O)N[C@H](C(=O)NN)CCCCNC1=O` [Compound 6c, Cyclo-(N^α-Dipicolinoyl)-bis[L-Phe-L-ILe]-L-Lys-NHNH2], the melting point is 208 to 210 °C. Besides, the IC50 in the series on MCF-7 cell line was greater than 100 µM. Also, in the series with HepG-2 cell line, the IC50 worked out at 12.1 ± 1.68 µM.
